Source: PubChem BioAssay (NCI)
“And” between values parts separate entries of the source, which are not always exact repeats. Equal entries are not always repeated.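 How tested: cells in 96-well plates exposed to compound for 48 hours at five concentrations. GI50: concentration for 50% inhibition of growth. At the TGI there is no net growth.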

How the values were obtained:
Assay in all cases: inhibition of tumour cell growth, NCI panel, 48 h
TK-10 renal = system: TK-10 renal
HCT-116 colon = system: HCT-116 colon
K-562 leukemia = system: K-562 leukemia
CCRF-CEM leukemia = system: CCRF-CEM leukemia
SF-295 CNS = system: SF-295 CNS
MCF7 breast = system: MCF7 breast
PC-3 prostate = system: PC-3 prostate
RXF 393 renal = system: RXF 393 renal
UACC-62 melanoma = system: UACC-62 melanoma
MALME-3M melanoma = system: MALME-3M melanoma

COc1cc(Cl)cc(-c2nn(-c3cccc(NC(=O)Nc4cc(C(F)(F)F)cc(C(F)(F)F)c4)c3)cc2-c2ccncc2)c1
GI50 (TK-10 renal): 0.684 µM
TGI (TK-10 renal): 14.6 µM
GI50 (HCT-116 colon): 0.356 µM
TGI (HCT-116 colon): 1.46 µM
GI50 (K-562 leukemia): 0.339 µM
TGI (K-562 leukemia): 8.09 µM
GI50 (CCRF-CEM leukemia): 0.312 µM
TGI (CCRF-CEM leukemia): 1.52 µM
GI50 (SF-295 CNS): 0.622 µM
TGI (SF-295 CNS): 2.25 µM
GI50 (MCF7 breast): 0.439 µM
TGI (MCF7 breast): 9.3 µM
GI50 (PC-3 prostate): 0.311 µM
TGI (PC-3 prostate): 1.62 µM
GI50 (RXF 393 renal): 1.38 µM
TGI (RXF 393 renal): 4.09 µM
GI50 (UACC-62 melanoma): 0.416 µM
TGI (UACC-62 melanoma): 1.71 µM
GI50 (MALME-3M melanoma): 0.73 µM
TGI (MALME-3M melanoma): 4.77 µM

O=C(Nc1ccc2[nH]c(=S)sc2c1)Nc1ccccc1F
GI50 (TK-10 renal): 51.5 µM
TGI (TK-10 renal): > 100 µM
GI50 (HCT-116 colon): 37.7 µM
TGI (HCT-116 colon): > 100 µM
GI50 (K-562 leukemia): 28.6 µM
TGI (K-562 leukemia): > 100 µM
GI50 (CCRF-CEM leukemia): 26.7 µM
TGI (CCRF-CEM leukemia): > 100 µM
GI50 (SF-295 CNS): 28.8 µM
TGI (SF-295 CNS): > 100 µM
GI50 (MCF7 breast): 36.7 µM
TGI (MCF7 breast): > 100 µM
GI50 (PC-3 prostate): 21.5 µM
TGI (PC-3 prostate): > 100 µM
GI50 (RXF 393 renal): 54.5 µM
TGI (RXF 393 renal): > 100 µM
GI50 (UACC-62 melanoma): 18.5 µM
TGI (UACC-62 melanoma): > 100 µM
GI50 (MALME-3M melanoma): 18.4 µM
TGI (MALME-3M melanoma): 64.2 µM

O=P(CCCCP(=O)(c1ccccc1)c1ccccc1)(c1ccccc1)c1ccccc1.[Cl][Sn]([Cl])([c]1ccccc1)[c]1ccccc1
GI50 (TK-10 renal): 1.77 µM
TGI (TK-10 renal): 3.32 µM
GI50 (HCT-116 colon): 1.71 µM
TGI (HCT-116 colon): > 100 µM
GI50 (K-562 leukemia): 0.444 µM
TGI (K-562 leukemia): > 100 µM
GI50 (CCRF-CEM leukemia): 0.224 µM
TGI (CCRF-CEM leukemia): 2.39 µM
GI50 (SF-295 CNS): 6.36 µM
TGI (SF-295 CNS): 18.3 µM
GI50 (MCF7 breast): 0.876 µM
TGI (MCF7 breast): 2.64 µM
GI50 (PC-3 prostate): 2.29 µM
TGI (PC-3 prostate): 6.04 µM
GI50 (RXF 393 renal): 1.38 µM
TGI (RXF 393 renal): 3.13 µM
GI50 (UACC-62 melanoma): 1.59 µM
TGI (UACC-62 melanoma): 3.3 µM
GI50 (MALME-3M melanoma): 1.41 µM
TGI (MALME-3M melanoma): 3.1 µM

NC1=C(c2nc(-c3ccccc3)cs2)C(c2ccc(Br)cc2)c2c(c3ccccc3oc2=O)O1 (stereo unspecified)
GI50 (TK-10 renal): > 150 µg/mL
TGI (TK-10 renal): > 150 µg/mL
GI50 (HCT-116 colon): 79.6 µg/mL
TGI (HCT-116 colon): > 150 µg/mL
GI50 (K-562 leukemia): 77.1 µg/mL
TGI (K-562 leukemia): > 150 µg/mL
GI50 (CCRF-CEM leukemia): 66.9 µg/mL
TGI (CCRF-CEM leukemia): > 150 µg/mL
GI50 (SF-295 CNS): > 150 µg/mL
TGI (SF-295 CNS): > 150 µg/mL
GI50 (MCF7 breast): > 150 µg/mL
TGI (MCF7 breast): > 150 µg/mL
GI50 (PC-3 prostate): > 150 µg/mL
TGI (PC-3 prostate): > 150 µg/mL
GI50 (RXF 393 renal): 40.7 µg/mL
TGI (RXF 393 renal): 141 µg/mL
GI50 (UACC-62 melanoma): 52.1 µg/mL
TGI (UACC-62 melanoma): > 150 µg/mL
GI50 (MALME-3M melanoma): > 150 µg/mL
TGI (MALME-3M melanoma): > 150 µg/mL

COC(=O)CCC1CCC(c2cc(F)ccc2F)(S(=O)(=O)c2ccc(Cl)cc2)CC1 (stereo unspecified)
GI50 (TK-10 renal): > 100 µM
TGI (TK-10 renal): > 100 µM
GI50 (HCT-116 colon): 38.2 µM
TGI (HCT-116 colon): > 100 µM
GI50 (K-562 leukemia): > 100 µM
TGI (K-562 leukemia): > 100 µM
GI50 (CCRF-CEM leukemia): > 100 µM
TGI (CCRF-CEM leukemia): > 100 µM
GI50 (SF-295 CNS): > 100 µM
TGI (SF-295 CNS): > 100 µM
GI50 (MCF7 breast): 70.2 µM
TGI (MCF7 breast): > 100 µM
GI50 (PC-3 prostate): 30.7 µM
TGI (PC-3 prostate): > 100 µM
GI50 (RXF 393 renal): 55.4 µM
TGI (RXF 393 renal): > 100 µM
GI50 (UACC-62 melanoma): 69.4 µM
TGI (UACC-62 melanoma): > 100 µM
GI50 (MALME-3M melanoma): 67.1 µM
TGI (MALME-3M melanoma): > 100 µM

Oc1[nH]c2c(Br)cccc2c1C1=Nc2ccccc2/C1=N/OCCN1CCCC1
GI50 (TK-10 renal): 2.58 µM and 1.8 µM
TGI (TK-10 renal): > 100 µM
GI50 (HCT-116 colon): 0.448 µM
TGI (HCT-116 colon): 1.78 µM
GI50 (K-562 leukemia): 0.424 µM
GI50 (CCRF-CEM leukemia): 0.741 µM and 1.12 µM
GI50 (SF-295 CNS): 0.638 µM
TGI (SF-295 CNS): 3.69 µM
GI50 (MCF7 breast): 0.781 µM and 0.57 µM
TGI (MCF7 breast): > 100 µM
GI50 (PC-3 prostate): 0.824 µM
GI50 (RXF 393 renal): 0.942 µM
TGI (RXF 393 renal): 9.66 µM
GI50 (UACC-62 melanoma): 0.973 µM
TGI (UACC-62 melanoma): 2.45 µM
GI50 (MALME-3M melanoma): 1.16 µM
TGI (MALME-3M melanoma): 4.84 µM

CCCCCCCCCCCCOC1C(C(COC2OC(C3COC(C)(C)O3)C3OC(C)(C)OC23)NC(=O)NS(=O)(=O)c2ccccc2)OC2OC(C)(C)OC21 (stereo unspecified)
GI50 (TK-10 renal): 5.96 µM
TGI (TK-10 renal): 19.6 µM
GI50 (HCT-116 colon): 4.05 µM
TGI (HCT-116 colon): 16.3 µM
GI50 (K-562 leukemia): 2.57 µM
TGI (K-562 leukemia): 16.1 µM
GI50 (CCRF-CEM leukemia): 2.34 µM
TGI (CCRF-CEM leukemia): 7.49 µM
GI50 (SF-295 CNS): 3.52 µM
TGI (SF-295 CNS): 16.6 µM
GI50 (MCF7 breast): 2.98 µM
TGI (MCF7 breast): 12.9 µM
GI50 (PC-3 prostate): 3.27 µM
TGI (PC-3 prostate): 13.8 µM
GI50 (RXF 393 renal): 3.02 µM
TGI (RXF 393 renal): 7.47 µM
GI50 (UACC-62 melanoma): 3.27 µM
TGI (UACC-62 melanoma): 13.7 µM
GI50 (MALME-3M melanoma): 13.7 µM
TGI (MALME-3M melanoma): 41.8 µM

Cc1cc(NCc2cc(Nc3ccnc4cc(Cl)ccc34)ccc2F)nc(N2CCN(C)CC2)n1
GI50 (TK-10 renal): 2.03 µM
TGI (TK-10 renal): 5.49 µM
GI50 (HCT-116 colon): 1.25 µM
TGI (HCT-116 colon): 2.88 µM
GI50 (K-562 leukemia): 0.386 µM
TGI (K-562 leukemia): 2.11 µM
GI50 (CCRF-CEM leukemia): 1.12 µM
TGI (CCRF-CEM leukemia): 7.6 µM
GI50 (SF-295 CNS): 1.09 µM
TGI (SF-295 CNS): 2.55 µM
GI50 (MCF7 breast): 1.94 µM
TGI (MCF7 breast): 5.65 µM
GI50 (PC-3 prostate): 1.92 µM
TGI (PC-3 prostate): 7.97 µM
GI50 (RXF 393 renal): 1.26 µM
TGI (RXF 393 renal): 2.94 µM
GI50 (UACC-62 melanoma): 1.91 µM
TGI (UACC-62 melanoma): 3.81 µM
GI50 (MALME-3M melanoma): 1.84 µM
TGI (MALME-3M melanoma): 3.66 µM

COc1cccc2c1C(=O)c1c(O)c3c(c(O)c1C2=O)C[C@@](O)(C(=O)CO)C[C@@H]3O[C@H]1C[C@H](N)[C@@H](O)[C@H](C)O1
TGI (TK-10 renal): 10.5 µM
GI50 (HCT-116 colon): 0.112 µM
TGI (HCT-116 colon): 5.17 µM
GI50 (K-562 leukemia): 0.147 µM
TGI (K-562 leukemia): 5.05 µM
GI50 (CCRF-CEM leukemia): 0.0919 µM
TGI (CCRF-CEM leukemia): 0.95 µM
GI50 (SF-295 CNS): 0.158 µM
TGI (SF-295 CNS): 1.54 µM
GI50 (MCF7 breast): 0.0247 µM
TGI (MCF7 breast): 14 µM
GI50 (PC-3 prostate): 0.551 µM
TGI (PC-3 prostate): 5.32 µM
GI50 (RXF 393 renal): 0.205 µM
TGI (RXF 393 renal): 1.02 µM
GI50 (UACC-62 melanoma): 0.0847 µM
TGI (UACC-62 melanoma): 0.498 µM
GI50 (MALME-3M melanoma): 0.145 µM
TGI (MALME-3M melanoma): 0.718 µM

CN(C)CC1C(=O)O[C@H]2[C@H]1CC/C(COC(=O)c1cc3ccccc3[nH]1)=C\CC[C@@]1(C)O[C@@H]21 (stereo partly specified)
GI50 (TK-10 renal): 2.04 µM
TGI (TK-10 renal): 3.98 µM
GI50 (HCT-116 colon): 0.577 µM
TGI (HCT-116 colon): 1.57 µM
GI50 (K-562 leukemia): 1.14 µM
TGI (K-562 leukemia): 6.11 µM
GI50 (CCRF-CEM leukemia): 0.432 µM
TGI (CCRF-CEM leukemia): 15.9 µM
GI50 (SF-295 CNS): 4.87 µM
TGI (SF-295 CNS): 18.5 µM
GI50 (MCF7 breast): 1.01 µM
TGI (MCF7 breast): 4.55 µM
GI50 (PC-3 prostate): 2.14 µM
TGI (PC-3 prostate): 5.86 µM
GI50 (RXF 393 renal): 1.4 µM
TGI (RXF 393 renal): 2.89 µM
GI50 (UACC-62 melanoma): 1.72 µM
TGI (UACC-62 melanoma): 3.89 µM
GI50 (MALME-3M melanoma): 1.8 µM
TGI (MALME-3M melanoma): 4.56 µM

CC(C)c1c(O)ccc2c1CCC1C(C)(C)CCCC21C (stereo unspecified)
TGI (TK-10 renal): 35.8 µM
TGI (HCT-116 colon): 31 µM
TGI (K-562 leukemia): 50 µM
TGI (CCRF-CEM leukemia): 49.3 µM
TGI (SF-295 CNS): 32.5 µM
TGI (MCF7 breast): 35.3 µM
TGI (PC-3 prostate): 31.4 µM
TGI (RXF 393 renal): 29.3 µM
TGI (UACC-62 melanoma): 28.9 µM
TGI (MALME-3M melanoma): 35.6 µM

CCN1C(=O)N(c2ccccc2)C2NC(=S)N(/N=C/C=C/c3ccccc3)C21 (stereo unspecified)
GI50 (TK-10 renal): 0.825 µM
TGI (TK-10 renal): > 100 µM
GI50 (HCT-116 colon): 0.297 µM
TGI (HCT-116 colon): > 100 µM
GI50 (K-562 leukemia): 0.155 µM
TGI (K-562 leukemia): > 100 µM
GI50 (CCRF-CEM leukemia): 0.35 µM
TGI (CCRF-CEM leukemia): > 100 µM
GI50 (SF-295 CNS): 0.276 µM
TGI (SF-295 CNS): > 100 µM
GI50 (MCF7 breast): 0.193 µM
TGI (MCF7 breast): > 100 µM
GI50 (PC-3 prostate): 0.394 µM
TGI (PC-3 prostate): > 100 µM
GI50 (RXF 393 renal): 0.345 µM
TGI (RXF 393 renal): > 100 µM
GI50 (UACC-62 melanoma): 0.197 µM
TGI (UACC-62 melanoma): > 100 µM
GI50 (MALME-3M melanoma): 2.83 µM
TGI (MALME-3M melanoma): > 100 µM
